Experimental data taken from patent publication US20100280047A1, “SALTS OF ACTIVE INGREDIENTS WITH POLYMERIC COUNTER-IONS” (BASF SE, priority 2007, published 2010).

What was measured:
[1] = Saturation solubility of haloperidol in aqueous polymer solutions (HPLC of filtrate); assay type: physicochemical
Experimental: 1.0 g of haloperidol (free base) was added to 100.0 ml of aqueous polymer solution and stirred for 72 h. […] The undissolved amount of haloperidol was filtered off. The content of haloperidol in the filtrate was determined by HPLC.
For comparison, the saturation solubility of haloperidol was determined in demineralized water, as well as in hydrochloric acid. In the latter case, the corresponding haloperidol hydrochloride is formed.

[2] = Saturation solubility of loperamide in aqueous polymer solutions (HPLC of filtrate); assay type: physicochemical
Experimental: 1.0 g of loperamide (free base) was added to 100.0 ml of aqueous polymer solution and stirred for 72 h. […] The undissolved amount of loperamide was filtered off. The content of loperamide in the filtrate was determined by HPLC.
For comparison, the saturation solubility of loperamide was determined in demineralized water, as well as in hydrochloric acid. In the case of the latter, the corresponding loperamide hydrochloride is formed.

Row | SMILES | Concentration of dissolved haloperidol ([1]; 10% by wt. polymer D in water, stirred 72 h, pH of filtered solution 3.2) [µg/mL] | Concentration of dissolved haloperidol ([1]; 20% by wt. polymer A in water, stirred 72 h, pH of filtered solution 3.0) [µg/mL] | Concentration of dissolved haloperidol ([1]; 20% by wt. polymer C in water, stirred 72 h, pH of filtered solution 3.3) [µg/mL] | Concentration of dissolved haloperidol ([1]; 20% by wt. polymer D in water, stirred 72 h, pH of filtered solution 3.0) [µg/mL] | Concentration of dissolved haloperidol ([1]; 20% solution of polymer A plus NaOH to pH 10, pH of filtered solution 10.1) [µg/mL] | Concentration of dissolved haloperidol ([1]; demineralized water, 0% polymer, stirred 72 h, pH of filtered solution 7.5) [µg/mL] | Concentration of dissolved haloperidol ([1]; hydrochloric acid 10%, no polymer (haloperidol hydrochloride is formed)) [µg/mL] | Concentration of dissolved loperamide ([2]; 10% by wt. polymer A in water, stirred 72 h, pH of filtered solution 2.5) [µg/mL] | Concentration of dissolved loperamide ([2]; 10% by wt. polymer B in water, stirred 72 h, pH of filtered solution 2.0) [µg/mL] | Concentration of dissolved loperamide ([2]; 20% by wt. polymer A in water, stirred 72 h) [µg/mL] | Concentration of dissolved loperamide ([2]; 20% by wt. polymer D in water, stirred 72 h, pH of filtered solution 1.9) [µg/mL] | Concentration of dissolved loperamide ([2]; demineralized water, 0% polymer, stirred 72 h) [µg/mL] | Concentration of dissolved loperamide ([2]; hydrochloric acid 10%, no polymer (loperamide hydrochloride is formed)) [µg/mL]
1 | O=C(CCCN1CCC(O)(c2ccc(Cl)cc2)CC1)c1ccc(F)cc1 [haloperidol] | 5200 | 10300 | 7700 | 15100 | <74 | <17.8 | <16 | – | – | – | – | – | –
2 | CN(C)C(=O)C(CCN1CCC(O)(c2ccc(Cl)cc2)CC1)(c1ccccc1)c1ccccc1 [loperamide] | – | – | – | – | – | – | – | 6200 | 3900 | 7600 | 5900 | <17 | <14.9
